Read-outs that look alike come from different tables or passages of the source.
Columns and labels:
[1] = test system: purified human FH; conditions: from U.S. Pat. No. 9,765,106 / Ser. No. 14/627,396; cited from earlier work
[2] = target: T1, gonococcal LOS sialyltransferase (Lst) (Neisseria gonorrhoeae, UniProt P72074); conditions: from U.S. patent application Ser. No. 14/627,396; cited from earlier work
T1 construct: CMP-KDN served as a substrate for gonococcal Lst in the context of live bacteria; endogenous in cells; host or cells: N. gonorrhoeae F62 ΔlgtD (live bacteria)
T1 sequence (P72074 whole entry): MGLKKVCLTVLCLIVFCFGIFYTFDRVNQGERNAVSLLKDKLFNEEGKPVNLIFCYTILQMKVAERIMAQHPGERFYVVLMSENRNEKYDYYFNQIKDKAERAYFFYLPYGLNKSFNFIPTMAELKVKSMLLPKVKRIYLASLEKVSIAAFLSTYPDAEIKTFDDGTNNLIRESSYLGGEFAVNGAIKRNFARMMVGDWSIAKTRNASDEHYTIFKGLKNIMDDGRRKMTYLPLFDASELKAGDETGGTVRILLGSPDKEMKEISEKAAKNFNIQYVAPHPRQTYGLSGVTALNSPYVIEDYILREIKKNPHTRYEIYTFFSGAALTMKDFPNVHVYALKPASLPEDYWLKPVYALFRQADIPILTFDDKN

[3] = test system: N. gonorrhoeae H041; experiment: BALB/c mouse vaginal colonization model; assay type: in vivo; conditions: 10 μg intravaginally daily; Premarin treated BALB/c mice
Description: FIG. 2: Female BALB/c mice 5-6 weeks of age (Jackson Laboratories) in the diestrus phase of the estrous cycle were started on treatment (that day) with 0.5 mg of Premarin (Pfizer) given subcutaneously on each of three days; −2, 0 and +2 days (before, the day of and after inoculation) to prolong the estrus phase of the cycle and promote susceptibility to N. gonorrhoeae infection. Antibiotics (vancomycin, colistin, neomycin, trimethoprim and streptomycin) that were ineffective against N. gonorrhoeae were also used to reduce competitive microflora. Mice (n=40) were then infected with 10^6 CFU of strain H041. Three groups of mice (n=10/group) were treated with 10 μg intravaginally daily (first dose was administered 30 minutes before the introduction of bacteria) with one of the following CMP-NulOs in normal saline: CMP-Leg5Ac7Ac, CMP-Neu5Ac9Az or CMP-KDN. A fourth group (n=10) was given saline (vehicle control). Vaginal swabs were obtained daily from each animal, serially diluted and plated on chocolate agar containing vancomycin, colistin, neomycin, trimethoprim and streptomycin (VCNTS) to quantify bacterial loads. A. Median time to clearance was estimated using Kaplan-Meier survival curves; the times to clearance were compared between groups using a log-rank test. P<0.0001 for the control versus each of the treatment groups. Time to clearance between each of the treatment groups was similar (P>0.05). B. The mean area under the curve (log10 CFU vs. time) was computed for each mouse to estimate the bacterial burden over time (cumulative infection); the means under the curves were compared between groups using the Kruskal-Wallis nonparametric rank sum test because distributions were skewed or kurtotic. Groups were compared using Dunn's multiple comparison test. ****, P<0.0001; **, P<0.01; *, P<0.05. The differences among the groups that received CMP-NulOs were not significant.
The mouse model experiments and statistical analysis were conducted as described in the art and in U.S. Pat. No. 9,765,106. […]

[4] = test system: N. gonorrhoeae F62 ΔlgtD; conditions: from U.S. patent application Ser. No. 14/627,396; cited from earlier work
[5] = test system: N. gonorrhoeae F62 ΔlgtD; assay type: cell-based, Neisseria gonorrhoeae
Description: Generally, bacteria (F62 ΔlgtD) grown overnight on chocolate agar plates were suspended in gonococcal liquid media supplemented with IsoVitaleX [29] that contained specified concentrations of the CMP-nonulosonate. Bacteria were then incubated at 37° C. for the period specified in each experiment.
Serum bactericidal assays were performed as follows, similar to methods outlined in [32,33] and in U.S. Pat. No. 9,765,106. Bacteria were harvested from an overnight culture on chocolate agar plates and ˜10^5 CFU of Ng were grown in liquid media containing the concentrations of CMP-NuIO as specified for each experiment. Bacteria were diluted in Morse A and ˜2000 CFU of Ng F62 ΔlgtD were incubated with NHS (concentration specified for each experiment). The final reaction volumes were maintained at 150 μL. Aliquots of 25 μL of reaction mixtures were plated onto chocolate agar in duplicate at the beginning of the assay (t0) and again after incubation at 37° C. for 30 minutes (t30). Survival was calculated as the number of viable colonies at t30 relative to t0.
Addition of a terminal Neu5Ac residue to the LNnT LOS of N. gonorrhoeae that occurs in vivo or following the addition of CMP-Neu5Ac to growth media results in resistance to complement-dependent killing. We next determined the effects of LNnT incorporation of KDN on the ability of N. gonorrhoeae F62 ΔlgtD to resist complement-dependent killing by normal human sera at concentrations of 3.3% or 10%. Bacteria were grown either in media alone, or media supplemented with 20 μg/mL of CMP-Neu5Ac or CMP-KDN. In addition, CMP-NulO competition experiments were also performed with CMP-Neu5Ac, CMP-Leg5Ac7Ac and CMP-KDN at CMP-NulO concentrations of either 20 μg/mL or 2 μg/mL as indicated, where the second CMP-NulO was added 15 minutes after the first (Table 1 below). To note, these CMP-NulO competition experiments are a method to examine the ability of select CMP-NulOs to counter the enhanced serum resistance due to CMP-Neu5Ac addition, providing information on their therapeutic potential (as any potential therapeutic will be required to compete with CMP-Neu5Ac in vivo).

[6] = target: T1, gonococcal LOS sialyltransferase (Lst); experiment: mAb 3F11 binding by flow cytometry (incorporation of NulO on LNnT LOS by Lst); assay type: cell-based, N. gonorrhoeae F62 ΔlgtD; conditions: F62 ΔlgtD grown in media with 20 μg/mL CMP-NulO
Description: FIG. 1: CMP-KDN serves as a substrate for gonococcal LOS and incorporation of KDN on gonococcal lacto-N-neotetraose LOS enhances factor H (FH) binding. A. Incorporation of KDN by gonococci. Gonococcal strain F62 ΔlgtD (expresses lacto-N-neotetraose (LNnT) from Hepl) was grown in media containing CMP-KDN (20 μg/mL) and binding of mAb 3F11 was measured by flow cytometry. mAb 3F11 binds only to […] LNnT; substitution of the terminal Gal of LNnT, for example with a NulO, will decrease mAb 3F11 binding. Approximately 5×10^7 bacteria were incubated with mAb 3F11 tissue culture supernatants for 15 minutes at 37° C. Binding of mAb 3F11 was disclosed with anti-mouse IgM FITC (Sigma; dilution of 1:100). Bacteria grown in CMP-Neu5Ac or in media alone were used as positive and negative controls for sialylation, respectively. A representative histogram is shown in the upper panel. […] B. Factor H (FH) binding to gonococci grown in CMP-KDN. Approximately 5×10^7 bacteria grown in media alone (no sialic acid), media plus CMP-Neu5Ac (20 μg/mL; positive control for FH binding) or in media containing CMP-KDN (20 μg/mL) were incubated with purified human FH (20 μg/mL) in HBSS** for 15 minutes at 37° C. and bound FH was detected with affinity isolated goat anti-human FH followed by anti-goat IgG FITC (Sigma; 1:100 dilution). A representative histogram is shown in the upper panel.
FIG. 3: CMP-KDN7N3 serves as a substrate for gonococcal Lst resulting in incorporation of KDN7N3 on gonococcal lacto-N-neotetraose (LNnT) LOS—Incorporation of KDN7N3 by gonococci. Gonococcal strain F62ΔlgtD (expresses lacto-N-neotetraose (LNnT) from Hepl) was grown in media containing CMP-KDN7N3 (20 μg/mL) and binding of mAb 3F11 was measured by flow cytometry. mAb 3F11 binds only to […] LNnT; substitution of the terminal Gal of LNnT, for example with a NulO, will decrease mAb 3F11 binding. Approximately 5×10^7 bacteria were incubated with mAb 3F11 tissue culture supernatants for 15 minutes at 37° C. Binding of mAb 3F11 was disclosed with anti-mouse IgM FITC (Sigma; dilution of 1:100). […]

[7] = test system: purified human FH; experiment: Factor H (FH) binding to gonococci by flow cytometry; assay type: cell-based; conditions: F62 ΔlgtD grown with 20 μg/mL CMP-NulO, human FH 20 μg/mL
Description: FIG. 1: CMP-KDN serves as a substrate for gonococcal LOS and incorporation of KDN on gonococcal lacto-N-neotetraose LOS enhances factor H (FH) binding. A. Incorporation of KDN by gonococci. Gonococcal strain F62 ΔlgtD (expresses lacto-N-neotetraose (LNnT) from Hepl) was grown in media containing CMP-KDN (20 μg/mL) and binding of mAb 3F11 was measured by flow cytometry. mAb 3F11 binds only to […] LNnT; substitution of the terminal Gal of LNnT, for example with a NulO, will decrease mAb 3F11 binding. Approximately 5×10^7 bacteria were incubated with mAb 3F11 tissue culture supernatants for 15 minutes at 37° C. Binding of mAb 3F11 was disclosed with anti-mouse IgM FITC (Sigma; dilution of 1:100). Bacteria grown in CMP-Neu5Ac or in media alone were used as positive and negative controls for sialylation, respectively. A representative histogram is shown in the upper panel. […] B. Factor H (FH) binding to gonococci grown in CMP-KDN. Approximately 5×10^7 bacteria grown in media alone (no sialic acid), media plus CMP-Neu5Ac (20 μg/mL; positive control for FH binding) or in media containing CMP-KDN (20 μg/mL) were incubated with purified human FH (20 μg/mL) in HBSS** for 15 minutes at 37° C. and bound FH was detected with affinity isolated goat anti-human FH followed by anti-goat IgG FITC (Sigma; 1:100 dilution). A representative histogram is shown in the upper panel. […]

[8] = CMP-Neu5Ac (20 μg/mL) first, labelled CMP-NulO (20 μg/mL) added 15 minutes later
[9] = labelled CMP-NulO (20 μg/mL) first, CMP-Neu5Ac (2 μg/mL) added 15 minutes later
[10] = labelled CMP-NulO (20 μg/mL) first, CMP-Neu5Ac (20 μg/mL) added 15 minutes later

Row | SMILES | fH binding to bacteria (earlier results) [1] | substrate for gonococcal LOS sialyltransferase (Lst) (earlier results) [2] | attenuation of N. gonorrhoeae H041 infection [3] | serum resistance / serum-mediated killing (earlier results) [4] | % survival in 3.3% serum [5, 8] [%] | % survival in 10% serum [5, 8] [%] | countering of serum resistance mediated by CMP-Neu5Ac (competition, in words) ([5]; CMP-NulO competition, second CMP-NulO 15 minutes after the first, 3.3% and 10% serum) | % survival in 3.3% serum [5, 9] [%] | % survival in 10% serum [5, 9] [%] | % survival in 3.3% serum [5, 10] [%] | % survival in 10% serum [5, 10] [%] | binding of mAb 3F11 (use as substrate by gonococcal Lst) [6] | fH binding to bacteria [7] | % survival in 10% serum ([5]; Table 1, CMP-NulO 20 μg/mL alone) [%] | % survival in 3.3% serum ([5]; Table 5, CMP-NulO 20 μg/mL) [%] | % survival in 10% serum ([5]; Table 5, CMP-NulO 20 μg/mL) [%]
1 | CC(=O)N[C@@H]([C@@H]1O[C@](OP(=O)(O)OC[C@H]2O[C@@H](n3ccc(N)nc3=O)[C@H](O)[C@@H]2O)(C(=O)O)C[C@H](O)[C@H]1NC(C)=O)[C@@H](C)O [CMP-Leg5Ac7Ac] | not enhance fH binding above levels seen with an unsialylated F62 ΔlgtD control | can serve as substrates for gonococcal LOS sialyltransferase (Lst) | significantly attenuated | enhanced serum-mediated killing | 9 | 5 | blocked serum resistance mediated by CMP-Neu5Ac at both 3.3% and 10% serum concentrations irrespective of the order of addition | 6 | 6 | 7 | 3 | – | – | – | – | –
2 | CC(=O)N[C@H]1[C@H]([C@H](O)[C@H](O)CO)O[C@](OP(=O)(O)OC[C@H]2O[C@@H](n3ccc(N)nc3=O)[C@H](O)[C@@H]2O)(C(=O)O)C[C@@H]1O [CMP-Neu5Ac] | – | – | – | – | – | – | – | – | – | – | – | decreased binding of mAb 3F11 similarly | Maximal fH binding | 115 | 133.03 | 129.02

Reference: patent US20210401863A1, “TREATMENT AND PREVENTION OF NEISSERIA GONORRHOEAE INFECTION USING CMP-ACTIVATED NONULOSONATE ANALOG COMPOUNDS” (NATIONAL RESEARCH COUNCIL OF CANADA, priority 2015, published 2021)
